From PMC8092228 (mBio, 2021) come the findings set out here.

Assay [1] concerns the target T1, LOV-PAS-HK (full-length LOV-HK) (Brucella abortus, UniProt Q2YKK7).
T1 construct: gene BAB2_0652

The next assay concerns the target T2, LOV-PAS (Brucella abortus, UniProt Q2YKK7).
T2 construct: gene BAB2_0652

T1 sequence (Q2YKK7 15-489 limits assumed): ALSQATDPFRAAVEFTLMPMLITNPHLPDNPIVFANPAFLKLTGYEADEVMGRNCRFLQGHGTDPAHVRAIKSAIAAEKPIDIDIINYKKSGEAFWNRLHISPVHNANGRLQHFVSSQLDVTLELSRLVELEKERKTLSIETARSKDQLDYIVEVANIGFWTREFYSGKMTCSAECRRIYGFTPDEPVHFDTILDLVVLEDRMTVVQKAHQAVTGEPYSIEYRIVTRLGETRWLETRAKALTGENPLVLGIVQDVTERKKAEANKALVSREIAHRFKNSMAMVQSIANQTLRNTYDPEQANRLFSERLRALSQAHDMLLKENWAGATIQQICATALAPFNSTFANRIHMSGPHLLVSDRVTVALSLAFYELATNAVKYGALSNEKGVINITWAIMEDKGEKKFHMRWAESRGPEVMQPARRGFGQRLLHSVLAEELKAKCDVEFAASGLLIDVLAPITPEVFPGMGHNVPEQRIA
T2 sequence (Q2YKK7 15-273 limits assumed): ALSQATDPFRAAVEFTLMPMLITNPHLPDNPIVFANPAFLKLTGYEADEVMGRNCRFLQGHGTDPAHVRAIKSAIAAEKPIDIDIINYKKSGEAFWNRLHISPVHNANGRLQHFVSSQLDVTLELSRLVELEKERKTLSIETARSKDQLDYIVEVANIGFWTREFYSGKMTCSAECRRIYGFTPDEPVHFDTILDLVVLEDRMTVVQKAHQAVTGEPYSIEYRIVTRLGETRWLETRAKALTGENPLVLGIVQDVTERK

Consider `Cc1cc2nc3c(=O)[nH]c(=O)nc-3n(C[C@H](O)[C@H](O)[C@H](O)COP(=O)(O)O)c2cc1C` [FMN], for which the “X-ray crystal structure 3.25 A” value in assay [1] is on record as “the electron densities associated with the FMN chromophores are fused into the protein moiety”. The “X-ray crystal structure, 2.74 A (dark), 2.80 A (light)” value at LOV-PAS is “the FMN ligand is clearly separated from the protein moiety in the electron density map”.
